Assays:
[1] = molecular target: T1, GPR164 (Or51e1, Olfr558) (Mus musculus, UniProt Q8VGZ7); test: cAMP EIA in Or51e1-overexpressing HEK293 cells, single concentration […]; format: cell-based; design: HA-tagged Or51e1 in HEK293 cells, co-transfected with RTP1S or RTP4
T1 sequence (Q8VGZ7 1-317): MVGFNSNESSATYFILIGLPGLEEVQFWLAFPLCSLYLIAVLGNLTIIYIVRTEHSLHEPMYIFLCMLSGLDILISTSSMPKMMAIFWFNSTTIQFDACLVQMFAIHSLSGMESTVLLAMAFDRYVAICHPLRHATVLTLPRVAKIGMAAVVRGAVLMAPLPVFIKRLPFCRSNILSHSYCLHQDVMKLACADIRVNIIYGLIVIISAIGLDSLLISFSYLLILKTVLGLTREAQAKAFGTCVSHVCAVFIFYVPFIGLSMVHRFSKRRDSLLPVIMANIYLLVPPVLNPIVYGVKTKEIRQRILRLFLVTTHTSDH

[2] = molecular target: T1, GPR164 (Or51e1, Olfr558); test: as above; format: cell-based; design: HA-tagged Or51e1 in HEK293 cells, active only when co-transfected with RTP1S

## CCCC(=O)O [C4, butyrate]
[1]
  intracellular cAMP response: intracellular cAMP levels were upregulated by the treatment with butyrate or valerate (Fig. 1B)

## CCCCC(=O)O [C5, valerate]
[1]
  intracellular cAMP response: only SCFAs (butyrate and valerate) activated GPR164 in cells expressing RTP4 (Fig. 1B)

## CCCCCCCCCC(=O)O [C10, decanoate]
[2]
  cAMP EIA in Or51e1-overexpressing HEK293 cells, single concentration 1 mM: GPR164 was activated by the stimulation with butyrate or decanoate when cells were co-transfected with both Or51e1 and RTP1S
